BigSolDB 2.1

Clc1ncnc2nc[nH]c12
solubility (mole fraction)
Conditions	283.15 K	288.15 K	293.15 K	298.15 K	303.15 K	308.15 K	313.15 K	318.15 K	323.15 K	328.15 K
in DMAc	0.0175	0.0217	0.0267	0.0334	0.0411	0.0504	0.061	0.074	0.0893	0.107
in DMF	0.0555	0.0645	0.075	0.0871	0.0995	0.114	0.129	0.147	0.165	0.186
in ethanol	0.0087	0.0103	0.0122	0.0144	0.0168	0.0195	0.0226	0.026	0.0296	0.0338
in methanol	0.0112	0.0132	0.0153	0.0178	0.0204	0.0234	0.0268	0.0304	0.0345	0.0389
in water	0.00051	0.000555	0.000601	0.000658	0.000709	0.000761	0.000815	0.000873	0.000935	0.000994
